Tests used:
Type in all cases: in vivo
[1] = system: Chenopodium album; assay: Test Example 4: herbicidal effect test by treatment of leave and stem in dry field farming (seven days after seeding); settings: 120 g/10a active ingredient; emulsion sprayed seven days after seeding; evaluated 14 days after treatment
Procedure: (§1) This test was conducted in a double system per one agent solution concentration area, and the herbicidal rates (%) were determined by the following equation (Math. 1) on 14 days after the treatment with the agents. Herbicidal Rate (%)={1-(Average Dry Weight (g) of Plant of Treated Area)/(Average Dry Weight (g) of Plant of Untreated Area)}×100 [Math. 1]
(§2) Herbicidal Effect Test by Treatment of Leave and Stem in Dry Field Farming
(§3) Pots with a size of 36 cm^2 were filled with a dry field farming soil (alluvium). The soil of the top layer of 1 cm and seeds of weeds, namely southern crabgrass, Echinochloa crus-galli, Chenopodium album and Amaranthus viridis, 20 seeds each, were evenly mixed, and the top layer was gently pressed. Emulsions prepared using the compounds in Table 6 below according to Formulation Example 5 were diluted with water seven days after seeding, and the water-diluted agent solutions were sprayed to the soil surfaces at a ratio of 100 liters per 10 ares. The converted amount of the applied active ingredient corresponded to 120 g per 10 ares. The herbicidal effects were evaluated by the same standard as that in Test Example 1 on 14 days after the treatment with the agents. […] The compound numbers in Table 6 are the same as those in Table 1 and Table 2 above.

[2] = system: Echinochloa crus-galli; assay: as above; settings: 120 g/10a active ingredient; emulsion sprayed seven days after seeding; evaluated 14 days after treatment
Procedure: as §1, §2, §3

[3] = system: southern crabgrass; assay: as above; settings: 120 g/10a active ingredient; emulsion sprayed seven days after seeding; evaluated 14 days after treatment
Procedure: as §1, §2, §3

[4] = system: Amaranthus viridis; assay: as above; settings: 120 g/10a active ingredient; emulsion sprayed seven days after seeding; evaluated 14 days after treatment
Procedure: as §1, §2, §3

[5] = system: Scirpus juncoides; assay: Test Example 2: herbicidal effect test by treatment during growing period in paddy rice cultivation (seven days after seeding); settings: 120 g/10a active ingredient, assessed 14 days after treatment, dry weight vs untreated area
Outline: (§4)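 Sow 30 seeds per species (0–1 cm) into puddled, fertilized paddy soil; keep flooded ~3 cm in greenhouse. Day 7 after seeding: drop water-diluted emulsion, 120 g a.i./10 ares. Harvest 14 d post-treatment; compare dry weight with untreated pots (duplicate).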

[6] = system: broad leaf weeds (Lindernia pyxidaria and Monochoria vaginalis); assay: as above; settings: 120 g/10a active ingredient, assessed 14 days after treatment, dry weight vs untreated area
Outline: as §4

[7] = system: Echinochloa crus-galli; assay: as above; settings: 120 g/10a active ingredient, assessed 14 days after treatment, dry weight vs untreated area
Outline: as §4

[8] = system: Scirpus juncoides; assay: Test Example 1: herbicidal effect test by treatment of rice paddy soil (immediately after seeding); settings: 120 g/10a active ingredient, dry weight vs untreated area, 14 days after treatment
Outline: (§5)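 Values are herbicidal rates (%) derived from average plant dry weight in treated versus untreated pots 14 days after treatment, run in duplicate. Treatment was a water-diluted emulsion dropped into flooded paddy soil right after sowing, at 120 g active ingredient per 10 ares.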

[9] = system: broad leaf weeds (Lindernia pyxidaria and Monochoria vaginalis); assay: as above; settings: 120 g/10a active ingredient, dry weight vs untreated area, 14 days after treatment
Outline: as §5

[10] = system: Echinochloa crus-galli; assay: as above; settings: 120 g/10a active ingredient, dry weight vs untreated area, 14 days after treatment
Outline: as §5

[11] = system: Chenopodium album; assay: Test Example 3: herbicidal effect test by treatment of dry field farming soil (one day after seeding); settings: 120 g/10a active ingredient, evaluated 14 days after treatment
Outline: (§6)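 Weeds were seeded into the upper soil layer of alluvial field soil and, one day afterwards, the soil surface was sprayed with water-diluted emulsion delivering 120 g active ingredient per 10 ares. Mean plant dry weight relative to untreated pots after 14 days gave the herbicidal rate, tested in duplicate.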

[12] = system: Echinochloa crus-galli; assay: as above; settings: 120 g/10a active ingredient, evaluated 14 days after treatment
Outline: as §6

[13] = system: southern crabgrass; assay: as above; settings: 120 g/10a active ingredient, evaluated 14 days after treatment
Outline: as §6

[14] = system: Amaranthus viridis; assay: as above; settings: 120 g/10a active ingredient, evaluated 14 days after treatment
Outline: as §6

Row | SMILES | herbicidal effect (herbicidal rate), Chenopodium album [1] [%] | herbicidal effect (herbicidal rate), Echinochloa crus-galli [2] [%] | herbicidal effect (herbicidal rate), southern crabgrass [3] [%] | herbicidal effect (herbicidal rate), Amaranthus viridis [4] [%] | Herbicidal rate (%) Scirpus juncoides [5] [%] | Herbicidal rate (%) Lindernia pyxidaria [6] [%] | Herbicidal rate (%) Monochoria vaginalis [6] [%] | Herbicidal rate (%) Echinochloa crus-galli [7] [%] | Herbicidal rate (%) Scirpus juncoides [8] [%] | Herbicidal rate (%) Lindernia pyxidaria [9] [%] | Herbicidal rate (%) Monochoria vaginalis [9] [%] | Herbicidal rate (%) Echinochloa crus-galli [10] [%] | herbicidal rate, Chenopodium album [11] [%] | herbicidal rate, Echinochloa crus-galli [12] [%] | herbicidal rate, southern crabgrass [13] [%] | herbicidal rate, Amaranthus viridis [14] [%]
1 | CCC(C)n1oc(=O)c(Cc2ccccc2N(C(=O)OCc2ccccc2)S(=O)(=O)C(F)(F)F)c1C (single isomer, unassigned) [1-783 (TLC bottom)] | 40 | 90 | 90 | 40 | 90 | 90 | 90 | 90 | 90 | 90 | 90 | 90 | 90 | 90 | 90 | 90
2 | Cc1ccc(Cn2oc(=O)c(Cc3ccccc3NS(=O)(=O)C(F)(F)F)c2C)cc1 [Compound 1-191] | 40 | 90 | 40 | 80 | 90 | 80 | 80 | 90 | 90 | 100 | 90 | 90 |  |  |  | 
3 | CCCOC(=O)N(c1ccccc1Cc1c(C)n(C(C)CC)oc1=O)S(=O)(=O)C(F)(F)F (stereo not shown) [Compound 1-632] | 40 | 90 | 90 | 40 | 90 | 90 | 90 | 90 | 90 | 90 | 90 | 90 |  |  |  | 
4 | Cc1c(Cc2ccccc2N(S(=O)(=O)C(F)(F)F)S(=O)(=O)C(F)(F)F)c(=O)on1CCCl [Compound 1-983] | 0 | 60 | 40 | 40 | 80 | 80 | 80 | 40 | 90 | 90 | 90 | 70 |  |  |  | 
5 | CSCCn1oc(=O)c(Cc2ccccc2N(S(=O)(=O)C(F)(F)F)S(=O)(=O)C(F)(F)F)c1C [Compound 1-1002] | 70 | 90 | 60 | 50 | 80 | 60 | 80 | 90 | 100 | 100 | 100 | 100 |  |  |  | 
6 | CSCCCn1oc(=O)c(Cc2ccccc2N(S(=O)(=O)C(F)(F)F)S(=O)(=O)C(F)(F)F)c1C [Compound 1-1003] | 0 | 60 | 40 | 40 | 90 | 70 | 70 | 100 | 90 | 90 | 90 | 100 |  |  |  | 
7 | Cc1c(Cc2ccccc2N(S(=O)(=O)C(F)(F)F)S(=O)(=O)C(F)(F)F)c(=O)on1C(C)c1ccccc1 (stereo not shown) [Compound 1-1030] | 40 | 90 | 40 | 40 | 90 | 90 | 90 | 90 | 90 | 100 | 100 | 90 |  |  |  | 
8 | CCCCCC(c1ccccc1)n1oc(=O)c(Cc2ccccc2N(S(=O)(=O)C(F)(F)F)S(=O)(=O)C(F)(F)F)c1C (stereo not shown) [Compound 1-1042] | 40 | 0 | 50 | 40 | 70 | 60 | 60 | 60 | 90 | 90 | 80 | 90 |  |  |  | 
9 | Cc1c(Cc2ccccc2N(S(=O)(=O)C(F)(F)F)S(=O)(=O)C(F)(F)F)c(=O)on1CC(C)c1ccccc1 (stereo not shown) [Compound 1-1046] | 0 | 90 | 60 | 90 | 90 | 60 | 90 | 90 | 90 | 70 | 80 | 100 |  |  |  | 
